Measured values: patent publication US5385894A, “Disubstituted 6-aminoquinazolinones” (Merck & Co., Inc., priority 1994, dated 1995)

Experiments:
[1] = tested on: male Sprague-Dawley rats; details: rat; cited from earlier work
[2] = log P (Table 1); format: physicochemical
[3] = tested on: rats pretreated with scopolamine; details: cited from earlier work

Compound	logP [2]	other results
CN1C(=O)CN=C(c2ccccc2)c2cc(Cl)ccc21 [Diazepam]	–	activity in CER assay [1]: active
CCc1nc2ccc(N(Cc3ccccc3)C(=O)c3ccco3)cc2c(=O)n1Cc1ccc(-c2ccccc2-c2nnn[nH]2)cc1 [Example 122]	3.9	–
CCCc1nc2ccc(N(CC)C(=O)c3cccs3)cc2c(=O)n1Cc1ccc(-c2ccccc2-c2nnn[nH]2)cc1 [Example 124]	3.8	–
CCCc1nc2ccc(N(CC)C(=O)c3ccco3)cc2c(=O)n1Cc1ccc(-c2ccccc2-c2nnn[nH]2)cc1 [Example 125]	3.5	–
CCCc1nc2ccc(N(Cc3ccccc3)C(=O)c3ccccc3OC)cc2c(=O)n1Cc1ccc(-c2ccccc2-c2nn[nH]n2)cc1 [Example 126]	5	–
CCCc1nc2ccc(N(CCC)C(=O)c3ccccc3OC)cc2c(=O)n1Cc1ccc(-c2ccccc2-c2nnn[nH]2)cc1 [Example 127]	4.1	–
CCCCCN(C(=O)c1ccc(OCc2ccccc2)cc1)c1ccc2nc(CCC)n(Cc3ccc(-c4ccccc4-c4nnn[nH]4)cc3)c(=O)c2c1 [Example 128]	> 5.7	–
CCCc1nc2ccc(N(CCC)C(=O)c3ccc(OCc4ccccc4)cc3)cc2c(=O)n1Cc1ccc(-c2ccccc2-c2nnn[nH]2)cc1 [Example 129]	5.5	–
CCCCCN(C(=O)c1ccc(O)cc1)c1ccc2nc(CCC)n(Cc3ccc(-c4ccccc4-c4nnn[nH]4)cc3)c(=O)c2c1 [Example 130]	4.7	–
CCCc1nc2ccc(N(CCC)C(=O)c3ccc(O)cc3)cc2c(=O)n1Cc1ccc(-c2ccccc2-c2nnn[nH]2)cc1 [Example 131]	3.8	–
CCCc1nc2ccc(N(Cc3ccccc3)C(=O)Cn3ccnc3)cc2c(=O)n1Cc1ccc(-c2ccccc2-c2nn[nH]n2)cc1 [Example 132]	3.6	–
CCCc1nc2ccc(N(Cc3ccccc3)C(=O)CN3CCN(C(=O)OC(C)(C)C)CC3)cc2c(=O)n1Cc1ccc(-c2ccccc2-c2nnn[nH]2)cc1 [Example 133]	5.3	–
CCCc1nc2ccc(N(Cc3ccccc3)C(=O)c3cccnc3)cc2c(=O)n1Cc1ccc(-c2ccccc2-c2nnn[nH]2)cc1 [Example 134]	3.7	–
CCCc1nc2ccc(N(Cc3ccccn3)C(=O)Oc3ccccc3)cc2c(=O)n1Cc1ccc(-c2ccccc2-c2nn[nH]n2)cc1 [Example 135]	3.6	–
CCCc1nc2ccc(N(Cc3ccccc3)C(=O)c3ccccn3)cc2c(=O)n1Cc1ccc(-c2ccccc2-c2nn[nH]n2)cc1 [Example 136]	3.8	–
CCCc1nc2ccc(N(Cc3ccccn3)C(=O)c3ccccc3)cc2c(=O)n1Cc1ccc(-c2ccccc2-c2nn[nH]n2)cc1 [Example 137]	3.4	–
CCCc1nc2ccc(N(Cc3ccncc3)C(=O)c3ccccc3)cc2c(=O)n1Cc1ccc(-c2ccccc2-c2nn[nH]n2)cc1 [Example 138]	3.4	–
CCCc1nc2ccc(N(Cc3ccccc3)C(=O)c3ccncc3)cc2c(=O)n1Cc1ccc(-c2ccccc2-c2nn[nH]n2)cc1 [Example 139]	3.7	–
CCCc1nc2ccc(N(Cc3ccccc3)C(=O)c3ccccn3)cc2c(=O)n1Cc1ccc(-c2ccccc2-c2nn[nH]n2)cc1 [Example 140]	–	log P [2]: 3.7
CCCCN(C(=O)c1ccc(O)cc1)c1ccc2nc(CCC)n(Cc3ccc(-c4ccccc4-c4nn[nH]n4)cc3)c(=O)c2c1 [Example 144]	4.2	–
CCCc1nc2ccc(N(Cc3ccccn3)C(=O)c3ccncc3)cc2c(=O)n1Cc1ccc(-c2ccccc2-c2nn[nH]n2)cc1 [Example 145]	2.7	–

Compound	logP [2]	other results
CCCCCN(C(=O)c1ccc(OP(=O)(O)O)cc1)c1ccc2nc(CCC)n(Cc3ccc(-c4ccccc4-c4nn[nH]n4)cc3)c(=O)c2c1 [Example 146]	3.4	–
CCCc1nc2ccc(N(Cc3ccccc3)C(=O)c3ccc(O)cc3)cc2c(=O)n1Cc1ccc(-c2ccccc2-c2nn[nH]n2)cc1 [Example 147]	4	–
CCCc1nc2ccc(N(Cc3ccccn3)C(=O)c3ccco3)cc2c(=O)n1Cc1ccc(-c2ccccc2-c2nn[nH]n2)cc1 [Example 148]	3.2	–
CCCOC(=O)N(Cc1ccncc1)c1ccc2nc(CCC)n(Cc3ccc(-c4ccccc4-c4nn[nH]n4)cc3)c(=O)c2c1 [Example 156]	3.8	–
CCCOC(=O)N(Cc1cccnc1)c1ccc2nc(CCC)n(Cc3ccc(-c4ccccc4-c4nn[nH]n4)cc3)c(=O)c2c1 [Example 158]	3.8	–
CCCOC(=O)N(Cc1ccccn1)c1ccc2nc(CCC)n(Cc3ccc(-c4ccccc4-c4nn[nH]n4)cc3)c(=O)c2c1 [Example 159]	3.9	–
CCCc1nc2ccc(N(Cc3ccncc3)C(=O)OCCOC)cc2c(=O)n1Cc1ccc(-c2ccccc2-c2nn[nH]n2)cc1 [Example 160]	2.7	–
COCc1nc2ccc(N(C)C(=O)OCC(C)C)cc2c(=O)n1Cc1ccc(-c2ccccc2-c2nn[nH]n2)cc1 [Example 161]	3.7	–
CCCOC(=O)N(Cc1ccccn1)c1ccc2nc(COC)n(Cc3ccc(-c4ccccc4-c4nn[nH]n4)cc3)c(=O)c2c1 [Example 162]	3.3	–
CCCc1nc2ccc(N(Cc3ccccn3)C(=O)OCC)cc2c(=O)n1Cc1ccc(-c2ccccc2-c2nn[nH]n2)cc1 [Example 164]	3.5	–
CCCOC(=O)N(Cc1ccc(N)cc1)c1ccc2nc(CCC)n(Cc3ccc(-c4ccccc4-c4nn[nH]n4)cc3)c(=O)c2c1 [Example 166]	3.9	–
CCCc1nc2ccc(N(Cc3ccc(F)cc3)C(=O)N(C)C(C)C)cc2c(=O)n1Cc1ccc(-c2ccccc2-c2nn[nH]n2)cc1 [Example 174]	4.8	–
CCCc1nc2ccc(N(Cc3ccccn3)C(=O)N(C)C(C)C)cc2c(=O)n1Cc1ccc(-c2ccccc2-c2nn[nH]n2)cc1 [Example 175]	3.7	–
CCCc1nc2ccc(N(Cc3ccccc3)C(=O)c3ccccc3Oc3ccccc3)cc2c(=O)n1Cc1ccc(-c2ccccc2-c2nn[nH]n2)cc1 [Example 178]	4.2	–
CCCc1nc2ccc(N(Cc3ccc(O)cc3)C(=O)c3ccccc3)cc2c(=O)n1Cc1ccc(-c2ccccc2-c2nn[nH]n2)cc1 [Example 179]	3.6	–
CCCc1nc2ccc(N(Cc3ccccc3)C(=O)c3ccc(C(=O)O)cc3)cc2c(=O)n1Cc1ccc(-c2ccccc2-c2nn[nH]n2)cc1 [Example 180]	2.9	–
CCCc1nc2ccc(N(Cc3cccnc3)C(=O)c3ccc(O)cc3)cc2c(=O)n1Cc1ccc(-c2ccccc2-c2nn[nH]n2)cc1 [Example 181]	2.8	–
CCCc1nc2ccc(N(Cc3ccc(C(=O)O)cc3)C(=O)c3ccccc3)cc2c(=O)n1Cc1ccc(-c2ccccc2-c2nn[nH]n2)cc1 [Example 182]	2.4	–
CCCc1nc2ccc(N(Cc3ccc(C(=O)OC)cc3)C(=O)c3ccccc3)cc2c(=O)n1Cc1ccc(-c2ccccc2-c2nn[nH]n2)cc1 [Example 183]	4.4	–
CNC(=O)Oc1ccc2c(c1)[C@]1(C)CCN(C)[C@@H]1N2C [physostigmine]	–	activity in rat passive avoidance assay [3]: active
